Measured values: patent publication US20250040554A1, “NEW USES OF PHENMEDIPHAM AND HERBICIDAL COMBINATIONS COMPRISING PHENMEDIPHAM” (BAYER AKTIENGESELLSCHAFT, priority 2021, published 2025)

Key:
Format in all cases: in vivo
[1] = tested on: soybean (Glycine max, GLXMA); experiment: Greenhouse selectivity trial, post-emergence, soybean; details: 8 DAA
Source text: (§1) The respective (combinations of) materials were applied to weed plants in the greenhouse or in the field at the respective growth stage indicated hereinafter for the different weed species mentioned below. The respective (combinations of) active ingredients were also applied to corn, cotton and soybean crop plants, and the selectivity (damage) in these crop plants rated (assessed).
(§2) Visual scoring of the damage to the trial plants took place after the time mentioned in the respective Table—indicated in number of Days After Application (DAA). Damage and development of all above-ground parts of the respective plants was recorded. Visual rating was done on a percentage scale in relation to the untreated control (100%=all plants dead; 50%=green plant biomass reduced by 50%, and 0%=no discernible difference=like control plot).
(§3) The trials in the greenhouse were sprayed with an application volume of 300 L/ha with an automated track sprayer. The plots in the field were sprayed with an application volume of 140 L/ha with a hand held spray boom.
(§4) In greenhouse selectivity trials and trials herbicidal activity trials against weed plants were investigated in post-emergence application of the respective material(s).
(§5) Phenmedipham was applied at varying application rates (Dose Rate) to the crop plants of corn (Zea mays subsp. amylacea, ZEAMA), soybean (Glycine max, GLXMA) and cotton (Gossypium hirsutum, GOSHI) at a BBCH growth stage of the plants of BBCH 13 and the crop safety (crop injury, damage) assessed. The results are shown in Table 1 as the % damage when assessed 8 days after application (8 DAA).
(§6) In all the selectivity trials of Table 1 the adjuvant Mero® (rapeseed oil methyl ester) was added to the respective spray mixture in an amount corresponding to 1 L/ha.

[2] = tested on: cotton (Gossypium hirsutum, GOSHI); experiment: Greenhouse selectivity trial, post-emergence, cotton; details: 8 DAA
Source text: as §1, §2, §3, §4, §5, §6

[3] = tested on: EPHHL=Euphorbia heterophylla; experiment: Weed control field trial EPHHL
Source text: as §1, §2, §3
(§7) wherein • A, B=respective value in percent of active ingredient A at a dose rate of a g/ha, ingredient B at a dose rate of b g/ha • E^C=Expected value according to Colby (S. R. Colby; Weeds 15 (1967), 20-22) in % at a dose rate of a+b, each in g/ha • Δ=Difference (in %) between measured value E and expected value E^C (%) (measured value minus expected value)
(§8) The growth stages of the different weed species are indicated according to the BBCH monograph “Growth stages of mono- and dicotyledonous plants”, 2nd edition, 2001, ed. Uwe Meier, Federal Biological Research Centre for Agriculture and Forestry (Biologische Bundesanstalt für Land und Forstwirtschaft).
(§9) After the harmful plants had emerged, they were treated, at the respective growth stage indicated, with the respective materials as indicated at a water application rate of 140 L/ha.
(§10) After the treatment (21 or 35 days after application of the respective material), the herbicidal activity of respective material was scored visually at the same time by comparing the differently treated plots with the untreated control plots. The score figures of the different plots were averaged.
(§11) The dose rates of herbicidal ingredients used in each case are indicated for the respective active ingredient and refer to the amount of active ingredient per hectare (g/ha).
(§12) The weed control activity of different (combinations of) herbicidal active ingredients was investigated in field trials for the following weed species: • AMAVI=Amaranthus viridis • IPOAO=Ipomoea aristolochiaefolia • EPHHL=Euphorbia heterophylla • BIDPI=Bidens pilosa • BRADC=Brachiaria decumbens • ELEIN=Eleusine indica • CCHEC=Cenchrus echinatus
(§13) The growth stage of AMAVI was BBCH 13, the growth stage of IPOAO was BBCH 15, the growth stage of EPHHL was BBCH 13, the growth stage of BIDPI was BBCH 14, the growth stage of BRADC was BBCH 23, the growth stage of ELEIN was BBCH 11 and the growth stage of CCHEC was BBCH 12 at the time of application of the respective material.
(§14) Phenmedipham and Mesotrione were applied at varying application rates (Dose Rate) to the different species of weed plants. The results are shown in Tables 3a to 3e as the % control when assessed 21 and 35 days after application (DAA), respectively.
(§15) In all the trials of Tables 3a to 3e Mero® (rapeseed oil methyl ester) was added to the respective spray mixture in an amount corresponding to 1 L/ha for PMP, 1 L/ha for MST, and 2 L/ha for mixtures of PMP+MST.

CCHEC=Cenchrus echinatus = experiment: Weed control field trial CCHEC
Source text: as §1, §2, §3, §7, §8, §9, §10, §11, §12, §13, §14, §15

[4] = tested on: AMARE=Amaranthus retroflexus; experiment: Weed control field trial AMARE; details: 15 DAA
Source text: as §1, §2, §7
(§16) After the harmful plants had emerged, they were treated, at the respective growth stage indicated, with the respective materials as indicated at a water application rate of 187 L/ha.
(§17) After the treatment (15 days after the treatment), the herbicidal activity of respective material was scored visually at the same time by comparing the differently treated plots with the untreated control plots. The score figures of the different plots were averaged.
as §11
(§18) The weed control activity of different (combinations of) herbicidal active ingredients was investigated in field trials for the following weed species: • AMARE=Amaranthus retroflexus • KCHSC=Kochia scoparia • PANRA=Panicum ramosum
(§19) The growth stage of AMARE was BBCH 19, the growth stage of KCHSC was BBCH 19 and the growth stage of PANRA was BBCH 22 at the time of application of the respective material.
(§20) Phenmedipham and the respective aroylcyclohexanedione herbicide were applied at varying application rates (Dose Rate) to the different species of weed plants. The results are shown in Tables 4a to 4d as the % control when assessed 15 days after application (DAA), respectively.
(§21) In all the trials of Tables 4a to 4d Mero® (rapeseed oil methyl ester) was added to the respective spray mixture in an amount corresponding to 1 L/ha for PMP, 1 L/ha for the respective aroylcyclohexanedione herbicide, and 2 L/ha for mixtures of PMP+the respective aroylcyclohexanedione herbicide.

KCHSC=Kochia scoparia = experiment: Weed control field trial KCHSC; details: 15 DAA
Source text: as §1, §2, §7, §16, §17, §11, §18, §19, §20, §21

COC(=O)Nc1cccc(OC(=O)Nc2cccc(C)c2)c1 [PMP, 3-[(methoxyformyl)amino]phenyl (3-methylphenyl)carbamate]
% damage GLXMA (soybean) ([1]; 12.5 g/ha): 2% | % damage GLXMA (soybean) ([1]; 25 g/ha): 3% | % damage GLXMA (soybean) ([1]; 75 g/ha): 0% | % damage GLXMA (soybean) ([1]; 125 g/ha): 5% | % damage GLXMA (soybean) ([1]; 200 g/ha): 18% | % damage GLXMA (soybean) ([1]; 300 g/ha): 20% | % damage GOSHI (cotton) ([2]; 12.5 g/ha): 0% | % damage GOSHI (cotton) ([2]; 25 g/ha): 0% | % damage GOSHI (cotton) ([2]; 75 g/ha): 3% | % damage GOSHI (cotton) ([2]; 125 g/ha): 6% | % damage GOSHI (cotton) ([2]; 200 g/ha): 6% | % damage GOSHI (cotton) ([2]; 300 g/ha): 14% | % control EPHHL ([3]; 75 g/ha, 21 DAA): 0% | % control EPHHL ([3]; 75 g/ha, 35 DAA): 0% | % control EPHHL ([3]; 100 g/ha, 21 DAA): 0% | % control EPHHL ([3]; 100 g/ha, 35 DAA): 0% | % control EPHHL ([3]; 125 g/ha, 21 DAA): 0% | % control EPHHL ([3]; 125 g/ha, 35 DAA): 0% | % control EPHHL ([3]; 250 g/ha, 21 DAA): 0% | % control EPHHL ([3]; 250 g/ha, 35 DAA): 0% | % control CCHEC (CCHEC=Cenchrus echinatus; 75 g/ha, 21 DAA): 0% | % control CCHEC (CCHEC=Cenchrus echinatus; 75 g/ha, 35 DAA): 0% | % control CCHEC (CCHEC=Cenchrus echinatus; 100 g/ha, 21 DAA): 0% | % control CCHEC (CCHEC=Cenchrus echinatus; 100 g/ha, 35 DAA): 0% | % control CCHEC (CCHEC=Cenchrus echinatus; 125 g/ha, 21 DAA): 0% | % control CCHEC (CCHEC=Cenchrus echinatus; 125 g/ha, 35 DAA): 0% | % control CCHEC (CCHEC=Cenchrus echinatus; 250 g/ha, 21 DAA): 0% | % control CCHEC (CCHEC=Cenchrus echinatus; 250 g/ha, 35 DAA): 0% | % control AMARE ([4]; 150 g/ha): 0% | % control AMARE ([4]; 300 g/ha): 5% | % control KCHSC (KCHSC=Kochia scoparia; 150 g/ha): 0% | % control KCHSC (KCHSC=Kochia scoparia; 300 g/ha): 5%

CS(=O)(=O)c1ccc(C(=O)C2C(=O)CCCC2=O)c([N+](=O)[O-])c1 [MST, 2-[4-(methylsulfonyl)-2-nitrobenzoyl]cyclohexane-1,3-dione]
% control EPHHL ([3]; 25 g/ha, 21 DAA): 0% | % control EPHHL ([3]; 25 g/ha, 35 DAA): 0% | % control EPHHL ([3]; 50 g/ha, 21 DAA): 17% | % control EPHHL ([3]; 50 g/ha, 35 DAA): 0% | % control CCHEC (CCHEC=Cenchrus echinatus; 25 g/ha, 35 DAA): 0% | % control CCHEC (CCHEC=Cenchrus echinatus; 50 g/ha, 21 DAA): 17% | % control CCHEC (CCHEC=Cenchrus echinatus; 50 g/ha, 35 DAA): 0% | % control AMARE ([4]; 20 g/ha): 25% | % control AMARE ([4]; 40 g/ha): 30% | % control AMARE ([4]; 60 g/ha): 40% | % control AMARE ([4]; 80 g/ha): 45% | % control AMARE ([4]; 100 g/ha): 50% | % control KCHSC (KCHSC=Kochia scoparia; 20 g/ha): 40% | % control KCHSC (KCHSC=Kochia scoparia; 40 g/ha): 45% | % control KCHSC (KCHSC=Kochia scoparia; 60 g/ha): 45% | % control KCHSC (KCHSC=Kochia scoparia; 80 g/ha): 45% | % control KCHSC (KCHSC=Kochia scoparia; 100 g/ha): 50%
